The results in this text go back to patent US8987233B2, “Bruton's tyrosine kinase activity probe and method of using” (Pharmacyclics, Inc., priority 2006, dated 2015).

The target of experiment [1] is c-met (Homo sapiens, UniProt P08581). In words: TR-FRET kinase assay, c-met. Particulars: ATP at Km. The format is biochemical. Here is the method:
(§1) Kinase activity for Btk, Abl, c-met, ITK, LCK, and EGFR was determined using a time-resolved fluorescence resonance energy transfer (TR-FRET) methodology. Measurements were performed in a reaction volume of 50 μl using 96-well assay plates. […] The reaction was quenched by the addition of 1.2 equivalents of EDTA (relative to divalent cation) in 25 μL of 1× Lance buffer (Perkin-Elmer). Streptavidin-APC (Perkin-Elmer) and Eu-labeled p-Tyr100 antibody (Perkin-Elmer) in 1× Lance buffer were added in a 25 μL volume to give final concentrations of 100 nM and 2.5 nM, respectively, and the mixture was allowed to incubate for one hour. The TR-FRET signal was measured on a multimode plate reader with an excitation wavelength of 330 nm and detection wavelengths of 615 and 665 nm. Activity was determined by the ratio of the fluorescence at 665 nm to that at 615 nm. For each compound, enzyme activity was measured at various concentrations of compound. Negative control reactions were performed in the absence of inhibitor in replicates of six, and two no-enzyme controls were used to determine baseline fluorescence levels. Inhibition constants {Ki(app)} were obtained using the program BatchKi (23). […]; for all kinases, [ATP]=KmATP, [Btk]total=0.5 nM and [Lck]total=6 nM.

In experiment [2] the test system is intracellular calcium mobilization in Ramos cells following B cell receptor activation. In words: Calcium flux assay in Ramos B-cells stimulated with anti-human IgM. The format is cell-based. The conditions noted are these: anti-IgM stimulation, read-out: IC50 Ca2+ flux (calcium mobilization). Here is the method:
Calcium flux assay was performed according to the protocol described by the manufacturer (Molecular Devices). Briefly, actively growing Ramos B-cells in RPMI medium supplemented with 10% FBS were washed and re-plated in low serum medium to approximately 5×10^5 cells per 100 μl per well in 96-well plate. Compounds to be assayed were dissolved in DMSO, diluted to appropriate concentrations in low serum medium (from 0 to 10 μM final concentrations at a stepwise dilution factor of 0.3), added to each well (the final DMSO concentration was 0.01% in each well) and incubated at 37° in a 5% CO2 incubator for 1 hour. 100 μl calcium assay dye (Calcium 3 assay kit, Molecular Devices) was then added to each well and the incubation was continued for one hour. Compound-treated cells were stimulated with a goat anti-human IgM antibody (80 μg/ml) and the calcium mobilization signal was read in a Flexstation II 384 (Molecular Devices) at excitation and emission wavelengths of 485 nm and 538 nm, respectively, for 200 seconds. The relative fluorescence units (RFU) and the fifty percent inhibition values (IC50%) were recorded and analyzed using the SoftMax program (Molecular Devices).
On the technique in general: A change in cytosolic calcium serves as a functional read-out for many receptors and channels.

Experiment [3] concerns the target purified, active Btk (Homo sapiens, UniProt Q06187). In words: Btk labeling in vitro (purified enzyme, SDS-PAGE, fluorescent scan).
Experiment [4] has as its target Btk Lys 430 to Ala mutant (Homo sapiens, UniProt Q06187, K430A). In words: Probe labeling in 293H cells transiently co-expressing PLCγ2 and Btk K430A. Particulars: transient co-expression with PLCγ2.
Method: (§3) The selected co-expressor cell line was routinely maintained in D-MEM containing 10% FBS, 1× non-essential amino acids, 1× antibiotics, and supplemented with 200 μg/ml G418 and 25 μg/ml blastocidin. […] Cells were then harvested and lysed by incubation in 50 μl of cell lysis buffer (CelLytic M, Sigma) supplemented with 1× protease inhibitor and 1× phosphatase inhibitor cocktails (Calbiochem) for 10 min on ice. The protein concentrations in cell lysates were determined by Bradford protein assay (Pierce). Lysates equivalent to 20 μg of total protein were fractionated on 4 to 20% SDS-gradient gels (Invitrogen), and scanned using a Typhoon densitometer as described above. Labeling of Ramos cells was carried out in identical fashion except RPMI medium was used.
Experiment [5] concerns the target T1, Btk (Homo sapiens, UniProt Q06187). In words: Probe labeling of Btk in 293H cells stably co-expressing Btk and PLCγ2.
The target in experiment [6] is Btk Cys 481 to Ala mutation (Homo sapiens, UniProt Q06187, C481A). In words: Probe labeling in 293H cells transiently co-expressing PLCγ2 and Btk C481A. Particulars: transient co-expression with PLCγ2.
Method: as §3
Experiment [7] concerns the target T1, Btk. In words: Inhibition of PLCγ2 phosphorylation at Tyr 1217 in 293H cells (ELISA). The conditions noted are these: Tyr 1217, ELISA, read-out: IC50 for probe inhibition of PLCγ2 phosphorylation. The format is cell-based. (In general: In an ELISA, binding on a coated surface is turned into a signal by an enzyme label.)
The target of experiment [8] is T1, Btk. In words: TR-FRET kinase assay, Btk. The format is biochemical. Also noted: His6 (N); purchased Upstate Biochem. Here is the method:
as §1

Experiment [9] concerns the target T1, Btk. In words: Probe labeling of endogenous Btk in cultured B cells (DOHH2).
Method: In some embodiments, to determine if a test Btk probe detects endogenous levels of Btk activity, label cultured B cells such as Ramos or DOHH2 B cells were used.
Cells were then harvested and lysed by incubation in 50 μl of cell lysis buffer (CelLytic M, Sigma) supplemented with 1× protease inhibitor and 1× phosphatase inhibitor cocktails (Calbiochem) for 10 min on ice. The protein concentrations in cell lysates were determined by Bradford protein assay (Pierce). Lysates equivalent to 20 μg of total protein were fractionated on 4 to 20% SDS-gradient gels (Invitrogen), and scanned using a Typhoon densitometer as described above. Labeling of Ramos cells was carried out in identical fashion except RPMI medium was used.
The target of experiment [10] is Btk Tyr 551 to Ala mutant (Homo sapiens, UniProt Q06187, Y551A). In words: Probe labeling in 293H cells transiently co-expressing PLCγ2 and Btk Y551A. Particulars: transient co-expression with PLCγ2.
Method: as §3
The target of experiment [11] is Lck (Homo sapiens, UniProt P06239). In words: TR-FRET kinase assay, Lck. Particulars: ATP at Km. The format is biochemical. On the procedure: (§2) Kinase activity for Btk, Abl, c-met, ITK, LCK, and EGFR was determined using a time-resolved fluorescence resonance energy transfer (TR-FRET) methodology. Measurements were performed in a reaction volume of 50 μl using 96-well assay plates. […] For each compound, enzyme activity was measured at various concentrations of compound. Negative control reactions were performed in the absence of inhibitor in replicates of six, and two no-enzyme controls were used to determine baseline fluorescence levels. Inhibition constants {Ki(app)} were obtained using the program BatchKi (23).
Background: Time-resolved FRET reads energy transfer from a long-lived donor to a nearby acceptor.

Experiment [12] has as its target EGFR (Homo sapiens, UniProt P00533). In words: TR-FRET kinase assay, EGFR. Particulars: ATP at Km. The class given is biochemical. Here is the method: as §1
Experiment [13] deals with Abl (Homo sapiens, UniProt P00519). In words: TR-FRET kinase assay, Abl. The format is biochemical. Particulars: ATP at Km. On the procedure:
as §2

T1 sequence (Q06187 whole entry): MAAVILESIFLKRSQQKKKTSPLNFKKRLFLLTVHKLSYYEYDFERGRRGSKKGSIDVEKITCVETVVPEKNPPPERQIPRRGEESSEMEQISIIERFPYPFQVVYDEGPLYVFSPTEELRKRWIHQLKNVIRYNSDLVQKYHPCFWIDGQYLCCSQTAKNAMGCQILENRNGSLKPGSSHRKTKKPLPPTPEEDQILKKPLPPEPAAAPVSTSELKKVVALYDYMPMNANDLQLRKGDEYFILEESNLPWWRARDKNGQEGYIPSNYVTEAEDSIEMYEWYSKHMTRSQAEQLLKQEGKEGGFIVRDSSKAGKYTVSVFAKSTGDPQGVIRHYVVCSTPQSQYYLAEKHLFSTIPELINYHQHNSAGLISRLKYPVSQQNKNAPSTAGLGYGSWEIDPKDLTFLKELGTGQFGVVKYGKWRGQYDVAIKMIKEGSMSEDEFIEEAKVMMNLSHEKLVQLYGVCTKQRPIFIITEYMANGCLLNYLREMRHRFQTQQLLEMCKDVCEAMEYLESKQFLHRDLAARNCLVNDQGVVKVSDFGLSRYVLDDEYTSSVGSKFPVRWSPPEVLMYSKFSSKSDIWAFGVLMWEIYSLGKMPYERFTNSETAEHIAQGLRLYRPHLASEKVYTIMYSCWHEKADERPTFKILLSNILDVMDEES
Sequence of c-met (P08581 25-1390): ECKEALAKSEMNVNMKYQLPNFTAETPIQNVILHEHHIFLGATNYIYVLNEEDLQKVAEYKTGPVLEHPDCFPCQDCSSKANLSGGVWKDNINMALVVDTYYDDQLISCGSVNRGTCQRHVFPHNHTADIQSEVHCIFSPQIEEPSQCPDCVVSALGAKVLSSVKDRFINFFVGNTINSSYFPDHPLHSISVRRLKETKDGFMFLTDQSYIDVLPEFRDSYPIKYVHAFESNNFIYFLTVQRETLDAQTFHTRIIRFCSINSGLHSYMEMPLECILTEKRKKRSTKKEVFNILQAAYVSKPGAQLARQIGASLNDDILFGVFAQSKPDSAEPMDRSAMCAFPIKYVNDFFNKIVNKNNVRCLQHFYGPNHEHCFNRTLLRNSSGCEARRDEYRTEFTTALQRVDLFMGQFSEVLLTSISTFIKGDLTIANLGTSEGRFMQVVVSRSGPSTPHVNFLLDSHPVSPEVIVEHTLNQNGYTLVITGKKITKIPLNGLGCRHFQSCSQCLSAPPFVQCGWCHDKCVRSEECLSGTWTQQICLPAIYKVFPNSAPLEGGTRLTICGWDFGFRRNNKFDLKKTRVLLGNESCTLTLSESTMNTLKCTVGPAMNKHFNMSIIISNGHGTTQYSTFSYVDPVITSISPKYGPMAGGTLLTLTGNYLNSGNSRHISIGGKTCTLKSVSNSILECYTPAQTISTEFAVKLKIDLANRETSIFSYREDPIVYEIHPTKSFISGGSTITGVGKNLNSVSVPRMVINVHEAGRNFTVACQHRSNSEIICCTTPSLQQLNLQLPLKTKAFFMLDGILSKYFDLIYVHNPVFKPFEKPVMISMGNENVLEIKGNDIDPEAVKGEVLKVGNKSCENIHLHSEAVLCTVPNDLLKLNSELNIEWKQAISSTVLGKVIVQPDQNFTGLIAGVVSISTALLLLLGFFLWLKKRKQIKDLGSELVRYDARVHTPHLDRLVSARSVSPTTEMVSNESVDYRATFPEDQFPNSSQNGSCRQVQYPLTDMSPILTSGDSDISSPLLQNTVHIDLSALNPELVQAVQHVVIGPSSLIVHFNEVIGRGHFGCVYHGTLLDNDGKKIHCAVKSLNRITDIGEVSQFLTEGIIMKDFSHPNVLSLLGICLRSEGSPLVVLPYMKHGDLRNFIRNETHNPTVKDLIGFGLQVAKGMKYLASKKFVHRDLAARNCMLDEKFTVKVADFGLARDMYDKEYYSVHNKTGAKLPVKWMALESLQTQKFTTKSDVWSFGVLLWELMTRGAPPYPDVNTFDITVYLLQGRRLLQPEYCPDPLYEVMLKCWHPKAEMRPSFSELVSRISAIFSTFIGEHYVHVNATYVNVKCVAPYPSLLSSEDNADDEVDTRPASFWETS
Sequence of purified, active Btk (Q06187 whole entry): as the sequence (Q06187 whole entry) above
Sequence of Btk Cys 481 to Ala mutation (Q06187 whole entry C481A): as the sequence (Q06187 whole entry) above, with C481A counted along it
Sequence of Btk Tyr 551 to Ala mutant (Q06187 whole entry Y551A): as the sequence (Q06187 whole entry) above, with Y551A counted along it
Sequence of EGFR (P00533 25-1210, species assumed): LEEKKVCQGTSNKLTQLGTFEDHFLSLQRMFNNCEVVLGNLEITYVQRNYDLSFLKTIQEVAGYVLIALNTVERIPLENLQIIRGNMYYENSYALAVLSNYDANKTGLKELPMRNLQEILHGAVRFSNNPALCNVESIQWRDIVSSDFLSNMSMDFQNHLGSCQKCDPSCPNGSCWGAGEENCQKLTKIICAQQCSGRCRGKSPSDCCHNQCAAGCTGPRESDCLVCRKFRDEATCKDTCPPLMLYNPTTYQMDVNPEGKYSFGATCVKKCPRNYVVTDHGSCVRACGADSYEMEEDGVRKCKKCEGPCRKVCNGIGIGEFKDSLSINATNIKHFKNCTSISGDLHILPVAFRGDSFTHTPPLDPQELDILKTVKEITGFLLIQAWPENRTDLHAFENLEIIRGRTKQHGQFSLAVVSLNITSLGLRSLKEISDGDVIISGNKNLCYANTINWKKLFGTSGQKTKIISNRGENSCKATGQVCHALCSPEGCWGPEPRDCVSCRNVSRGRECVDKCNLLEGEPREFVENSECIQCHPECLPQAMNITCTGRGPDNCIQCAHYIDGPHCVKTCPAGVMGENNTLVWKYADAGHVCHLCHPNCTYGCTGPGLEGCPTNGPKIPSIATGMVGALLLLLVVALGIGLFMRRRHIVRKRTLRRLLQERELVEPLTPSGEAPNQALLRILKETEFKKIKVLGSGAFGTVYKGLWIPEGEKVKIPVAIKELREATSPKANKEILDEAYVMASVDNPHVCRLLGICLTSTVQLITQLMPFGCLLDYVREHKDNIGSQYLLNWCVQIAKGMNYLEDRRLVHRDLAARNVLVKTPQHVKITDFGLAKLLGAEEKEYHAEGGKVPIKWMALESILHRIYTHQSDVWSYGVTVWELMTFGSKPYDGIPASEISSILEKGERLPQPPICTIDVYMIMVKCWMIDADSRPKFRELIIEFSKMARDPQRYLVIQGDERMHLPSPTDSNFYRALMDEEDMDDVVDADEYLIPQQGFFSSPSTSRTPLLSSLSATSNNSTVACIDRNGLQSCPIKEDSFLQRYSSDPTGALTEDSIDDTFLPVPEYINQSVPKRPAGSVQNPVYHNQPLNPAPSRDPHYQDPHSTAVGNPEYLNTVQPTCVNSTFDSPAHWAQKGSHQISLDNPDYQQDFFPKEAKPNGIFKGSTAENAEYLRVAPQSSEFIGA
Sequence of Lck (P06239 whole entry, species assumed): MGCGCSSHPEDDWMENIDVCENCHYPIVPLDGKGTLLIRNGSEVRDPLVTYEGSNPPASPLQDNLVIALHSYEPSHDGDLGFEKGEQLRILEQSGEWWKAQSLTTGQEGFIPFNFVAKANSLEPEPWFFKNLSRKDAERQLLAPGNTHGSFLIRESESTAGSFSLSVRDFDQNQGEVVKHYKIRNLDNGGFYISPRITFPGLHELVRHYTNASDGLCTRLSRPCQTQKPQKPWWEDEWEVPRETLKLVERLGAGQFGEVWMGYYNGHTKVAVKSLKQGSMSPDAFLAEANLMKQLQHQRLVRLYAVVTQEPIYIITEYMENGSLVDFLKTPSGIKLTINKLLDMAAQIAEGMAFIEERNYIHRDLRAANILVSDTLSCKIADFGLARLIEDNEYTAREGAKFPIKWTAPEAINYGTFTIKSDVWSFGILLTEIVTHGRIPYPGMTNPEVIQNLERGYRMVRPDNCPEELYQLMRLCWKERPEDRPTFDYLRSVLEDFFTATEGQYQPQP
Sequence of Btk Lys 430 to Ala mutant (Q06187 whole entry K430A): as the sequence (Q06187 whole entry) above, with K430A counted along it
Sequence of Abl (P00519 whole entry, species assumed): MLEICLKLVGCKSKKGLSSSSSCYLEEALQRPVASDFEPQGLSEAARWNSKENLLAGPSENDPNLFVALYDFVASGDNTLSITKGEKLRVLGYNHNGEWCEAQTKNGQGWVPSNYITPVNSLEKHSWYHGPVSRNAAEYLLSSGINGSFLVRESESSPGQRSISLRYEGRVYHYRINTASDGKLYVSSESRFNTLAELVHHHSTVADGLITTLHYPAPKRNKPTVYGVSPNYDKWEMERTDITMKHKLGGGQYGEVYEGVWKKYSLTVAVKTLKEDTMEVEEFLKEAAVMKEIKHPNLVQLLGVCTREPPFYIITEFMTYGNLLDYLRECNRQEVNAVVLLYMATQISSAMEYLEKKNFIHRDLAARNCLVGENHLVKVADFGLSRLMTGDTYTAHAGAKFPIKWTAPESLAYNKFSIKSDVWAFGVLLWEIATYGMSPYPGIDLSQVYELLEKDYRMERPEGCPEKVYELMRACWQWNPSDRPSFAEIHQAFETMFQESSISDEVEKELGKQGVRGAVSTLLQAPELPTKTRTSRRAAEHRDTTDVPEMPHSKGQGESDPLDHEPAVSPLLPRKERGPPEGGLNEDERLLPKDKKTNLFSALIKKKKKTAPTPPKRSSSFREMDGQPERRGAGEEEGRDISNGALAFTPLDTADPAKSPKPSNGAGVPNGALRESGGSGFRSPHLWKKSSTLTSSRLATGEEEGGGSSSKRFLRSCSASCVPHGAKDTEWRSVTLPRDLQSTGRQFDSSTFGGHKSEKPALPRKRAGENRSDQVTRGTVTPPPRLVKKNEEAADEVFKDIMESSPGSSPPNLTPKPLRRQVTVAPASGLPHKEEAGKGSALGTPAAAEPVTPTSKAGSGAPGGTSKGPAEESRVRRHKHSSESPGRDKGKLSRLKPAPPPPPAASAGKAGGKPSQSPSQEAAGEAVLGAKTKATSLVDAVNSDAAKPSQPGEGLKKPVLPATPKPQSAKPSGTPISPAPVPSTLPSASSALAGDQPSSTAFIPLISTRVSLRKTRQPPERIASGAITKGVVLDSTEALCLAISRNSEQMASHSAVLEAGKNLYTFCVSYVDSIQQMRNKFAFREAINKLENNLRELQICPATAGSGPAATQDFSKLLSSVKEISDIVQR

As to `C=CC(=O)N1CCC[C@@H](n2nc(-c3ccc(Oc4ccccc4)cc3)c3c(N)ncnc32)C1` [Compound 2], the IC50 (usually the concentration needed to halve the response being measured) came out at 35 µM in experiment [1] and 0.01 µM in experiment [2].

On to `Nc1ncnc2c1ncn2[C@@H]1O[C@H](COP(=O)(O)OP(=O)(O)OP(O)(O)=S)[C@@H](O)[C@H]1O` [ATP-γ-S, reference compound], for which, in experiment [3] (pre-incubation with 1 μM Compound 2 or 0.5 mM ATPγS), the “Effect of pre-incubation on Compound 3 labeling of Btk” value was “substantially reduced”.

On to `CC1=CC(C)=[N+]2C1=Cc1ccc(CCC(=O)NCCN3CCN(C/C=C/C(=O)N4CCC[C@@H](n5nc(-c6ccc(Oc7ccccc7)cc6)c6c(N)ncnc65)C4)CC3)n1[B-]2(F)F` [Compound 3], for which the IC50 in experiment [1] was determined as 100 µM; in [2] it was 0.23 µM; in experiment [7], 0.3 µM; in experiment [8] (ATP at Km, read-out: IC50 Btk), 0.089 µM; in experiment [8] (read-out: IC50 against Btk), 0.09 µM; in [11], 0.24 µM. Further, the IC50 in experiment [12] came to 2.9 µM; in [13], 0.3 µM. In addition, in experiment [4], the “Probe labeling of Btk K430A mutant” value was “no effect on probe labeling”. Besides, the EC50 in experiment [5] and in experiment [9] was roughly 0.2 µM in each case. Also, the “Probe labeling of Btk C481A mutant” value in experiment [6] is reported as “abrogated labeling”. Moreover, in experiment [3] (1 μg (0.13 μM) purified Btk, 1 hour at 37° C.), the “Probe concentration at which labeling of Btk reached saturation” value was 1 µM. The “Probe labeling of Btk Y551A mutant” value in experiment [10] is “also labeled”.
